Test results taken from patent publication US20080226596A1, “Therapeutic compositions and methods useful in treating hepatitis” (priority 2006, published 2008).
“Also recorded” adds a separate entry of the source.

Columns and labels:
NB4 cells = assay: NB4 differentiation, NBT reduction; assay type: cell-based, human
Method: Differentiation of AML cell lines was assessed by their ability to produce superoxide as measured by reduction of NBT to formazan and by analysis of expression of CD11b surface marker by flow cytometry. For NBT reduction, each cell suspension was mixed with an equal volume of solution containing 1 mg/ml of NBT (Sigma) and 2.5 µg/ml of TPA for 30 minutes at 37° C. After incubation, cells containing the purple formazan deposits and cells devoid of NBT-reducing activity (white cells) in each sample were determined by counting 200 cells under microscope. Data is expressed as a percentage based on the following ratio: purple cells/purple+white cells. For analysis of cell surface antigens, cells were exposed to phycoerythrin (PE)-conjugated murine anti-human CD11b (DAKO Corp., Carpinteria, Calif.). Analysis of fluorescence was performed on a FACScan flow cytometer (Beckton Dickinson, Mountain View, Calif.).

[1] = system: Renca tumor-infiltrating immune cells; assay: Renca tumor-infiltrating immune cells, immunohistochemistry; set-up: species or system Balb/c mice; conditions: mouse, in vivo
Method: Major internal organs and Renca tumors harvested from mice were fixed in 10% formalin or snap frozen in liquid nitrogen. H & E-stained tissue sections of the fixed samples were prepared and evaluated by microscopy as described previously (Yi, T., M. K. Pathak, D. J. Lindner, M. E. Ketterer, C. Farver, and E. C. Borden. 2002. Anticancer activity of sodium stibogluconate in synergy with IFNs. J Immunol 169:5978). Preparation of frozen tissue sections and immunohistochemistry were performed following established procedures (Joliat, M. J., P. A. Lang, B. L. Lyons, L. Burzenski, M. A. Lynes, T. Yi, J. P. Sundberg, and L. D. Shultz. 2002. Absence of CD5 dramatically reduces progression of pulmonary inflammatory lesions in SHP-1 protein-tyrosine phosphatase-deficient ‘viable motheaten’ mice. J Autoimmun 18:105). The antibodies used for immunohistochemistry were anti-CD4 (rat mAb, clone GK1.5, BD Biosciences, Franklin Lakes, N.J.), anti-CD8 (rat mAb, clone 53-6.7.5, BD Biosciences, Franklin Lakes, N.J.), anti-F4/80 (rat mAb, clone A3-1, Serotec, Oxford, UK) and anti-Asialo GM1 (rabbit polyclonal, Cedarlane, Hornby, Canada). […] Tissue sections of 2 mice/group were evaluated. The number of immune cells was semi-quantified based on the following scheme: […], 0-1 positive cells/40×field; +, 2-5 positive cells/40×field; ++, 6-10 positive cells/40×field, etc.

WiT49-N1 cells = assay: WiT49-N1 Wilms tumor cell growth, MTT assay; assay type: cell-based, human; conditions: single agent, day 6; killing at 100 μg/ml
Method: For cell proliferation assays, cells were grown in 10% FCS culture medium containing various amounts of IFNs and/or sodium stibogluconate in 96 well plates and cultured at 37° C. for 3 or 6 days as indicated. The numbers of viable cells in proliferation assays were determined by MTT assays as described in Phatak et al., J. Immunol. 167, 3391 (2001).

DU145R cells = assay: DU145R cell growth, MTT assay; assay type: cell-based, human; conditions: day 6, compared with parental DU145
Method: DU145 cells were cultured in the presence of sodium stibogluconate (100 µg/ml) in 48 well plates for 3 weeks. Cells from a well containing a single colony were transferred to flasks, cultured in sodium stibogluconate-free medium for 3 weeks and used as DU145R cells for further characterization. Growth of DU145R cells in the absence or presence of sodium stibogluconate in day 6 culture was determined by MTT assays. cDNAs of the coding region of PRLs were derived by RT-PCR from DU145 and DU145R cells and sequenced using primers described below.

Baf3 cells = assay: Baf3 cell proliferation assay; assay type: cell-based, murine
Method: The murine hematopoietic cell line Baf3 was maintained in RPMI 1640 medium supplemented with 10% fetal calf serum (FCS) and murine IL-3 (20 units/ml) as described previously in Damen et al., J. Biol. Chem. 270, 23402 (1995). Human myeloid cell line TF-1 was maintained in RPMI 1640 supplemented with 10% FCS and 40 ng/ml of recombinant human GM-CSF as described previously in Thomassen et al., Clin. Immunol. 95, 85 (2000). For cell proliferation assays, cells were washed in 10% FCS medium twice, resuspended in 10% FCS medium, incubated at 37° C. for 16 hours, and then cultured at 37° C. in 10% FCS medium containing various amounts of cytokines, sodium stibogluconate, or potassium antimonyl tartrate for 3-6 days as indicated. The cell numbers in proliferation assays were determined by an MTT assay or by microscopic cell counting as indicated.

SHP-1 = target: T1, SHP-1 (Mus musculus, UniProt P29351); assay: Reversibility of SHP-1 inhibition (washing of bead-bound GST/SHP-1); assay type: biochemical; conditions: pre-incubated 4° C. 30 minutes, washed 3 times
T1 construct: made in house
Text: The beads were then either subjected to in vitro PTPase assays or washed 3 times in Tris buffer then subjected to in vitro PTPase assays.

U251 cells = assay: U251 glioma cell growth, MTT assay; assay type: cell-based, human; conditions: 100 μg/ml, day 6
Method: NIH3T3 (Yi, et al., Blood 85, 87 (1995)), WM9 (Forsberg, et al., Proc. Nat. Acad Sci. USA 90, 393 (1993)), DU145 (Mickey, et al., Cancer Res. 37, 4049 (1977)), LoVo (Drewinko, et al., Cancer Res. 36, 467 (1976)), HEY (Buick, et al., Cancer Res. 45, 3668 (1985)), U251 (Yoshida, et al., Cancer 50, 410 (1982)), A549 (Giard, et al., J. Natl. Cancer Inst. 51, 1417 (1973)) and SK-N-SH (Helson, et al., Cancer Res. 35, 2594 (1975)) cell lines have been described and were cultured in RPMI 1640 supplemented with 10% fetal calf serum (FCS). For measurement of sodium stibogluconate effects on cell growth in vitro, cells were cultured in the absence (−) or presence (+) of various amounts of sodium stibogluconate for 6 days with viable cells quantified by MTT assays (Mosmann, J. Immunol. Methods 65, 55 (1983)). Percentages of growth inhibition by sodium stibogluconate were calculated (.+−.x

T1 sequence (P29351 whole entry): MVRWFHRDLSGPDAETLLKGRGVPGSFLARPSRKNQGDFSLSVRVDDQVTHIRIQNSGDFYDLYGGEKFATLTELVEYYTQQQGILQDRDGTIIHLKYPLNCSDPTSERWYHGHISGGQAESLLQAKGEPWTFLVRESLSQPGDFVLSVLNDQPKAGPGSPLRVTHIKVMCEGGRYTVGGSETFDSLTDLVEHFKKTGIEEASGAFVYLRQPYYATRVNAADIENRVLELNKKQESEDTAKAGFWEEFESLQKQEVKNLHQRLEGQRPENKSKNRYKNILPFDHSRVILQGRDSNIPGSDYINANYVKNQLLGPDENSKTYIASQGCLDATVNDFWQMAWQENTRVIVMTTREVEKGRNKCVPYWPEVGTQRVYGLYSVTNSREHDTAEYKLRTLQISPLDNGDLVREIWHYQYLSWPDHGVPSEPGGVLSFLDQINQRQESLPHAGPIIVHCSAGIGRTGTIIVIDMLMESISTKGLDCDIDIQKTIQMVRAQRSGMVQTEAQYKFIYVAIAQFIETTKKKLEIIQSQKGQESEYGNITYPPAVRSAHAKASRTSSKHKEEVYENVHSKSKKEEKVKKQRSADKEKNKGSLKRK

SMILES: O.O.O.O.O.O.O.O.O.O=C([O-])[C@@H]1[O][Sb]2([O-])([O][Sb]34([OH])[O][C@H]([C@H](O)CO)[C@H]([O]3)[C@H](C(=O)[O-])[O]4)[O][C@H]([C@H](O)CO)[C@@H]1[O]2.[Na+].[Na+].[Na+] [sodium stibogluconate]
- NB4 differentiation induction (NB4 cells; 10 to 400 μg/ml, day 3 or day 6): differentiation induction activity at all of the dosages
- reversal of NB4 differentiation after drug removal (NB4 cells; 6 days with drug (10 or 100 μg/ml), washed, 6 days without): not reversed
- numbers of tumor-infiltrating T cells or NK cells [1]: little effect
- sensitivity/killing of WiT49-N1 cells (WiT49-N1 cells): sensitive; also recorded: complete or near complete killing
- growth of DU145R cells with sodium stibogluconate (DU145R cells): growth resistance to sodium stibogluconate
- IL-3-induced Baf3 growth (Baf3 cells; 1,000 μg/ml): suppressed IL-3-induced Baf3 growth
- Baf3 proliferation/viability (Baf3 cells; absence of IL-3, day 3 culture): failed to support cell proliferation or maintain cell viability
- inhibition of GST/SHP-1 after washing (SHP-1): not affected by washing
- killing of U251 cells (U251 cells): near-complete cell killing
